From patent EP4768487A1, “FUSED LACTAM RING COMPOUND AND USE THEREOF” (Chengdu Zenitar Biomedical Technology Co., Ltd., priority 2023, dated 2025)

Columns and labels:
PARP1 = target: T1, PARP1 (Homo sapiens, UniProt P09874); assay: PARP1 enzyme assay (histone-coated plate, chemiluminescence); format: biochemical; details: PARP1 0.02 nM, DNA 0.8 nM, NAD+ 3.5 µM; read-out: PARP-1 IC50
T1 construct: purchased BPS 80501
Procedure: 1.1.1. Buffer preparation: PBST: 1× PBS, 0.05% Tween-20; blocking buffer: 1× PBS, 0.05% Tween-20, 5% BSA; reaction buffer: 50 mM Tris-HCl (pH 7.5), 0.005% Tween-20, 0.01% BSA.
1.1.2. Coating: A 50 ng/mL Histone coating solution was prepared with 1× PBS and then transferred to a 384-well reaction plate at 25 µL/well. The plate was coated at 4 °C overnight.
1.1.3. Washing: After the coating was completed, the coating solution was discarded, and the plate was washed with the PBST solution. The method was as follows: PBST was transferred to the 384-well reaction plate at 50 µL/well, and the plate was left to stand for 5 min. The washing solution was then discarded, and the plate was refilled. The washing step was repeated 3 times. Finally, the reaction plate was patted dry and left for the next step of blocking.
1.1.4. Blocking: The blocking buffer was transferred to the 384-well reaction plate at 50 µL/well, and the plate was left to stand for 1 h.
Washing: After the blocking was completed, the blocking buffer was discarded, and the plate was washed 3 times with the PBST solution according to the method in step 2. Finally, the reaction plate was patted dry.
1.1.5. A 1000-fold solution of a compound was prepared and then transferred at 1 µL/well to a 96-well plate containing 199 µL of the reaction buffer. The mixture was well mixed, and then the well mixed compound solution was transferred to the 384-well reaction plate at 5 µL/well. 1.1.6. A 25/10-fold PARP1-DNA solution was prepared with the reaction buffer and then transferred to the 384-well reaction plate at 10 µL/well. For the negative control wells, 10 µL
of the DNA solution was transferred. The final concentrations of PARP1 and DNA were 0.02 nM and 0.8 nM, respectively.
1.1.9. Washing: After the reaction was completed, the reaction solution was discarded, and the plate was washed 3 times with the PBST solution according to the method in step 2. Finally, the reaction plate was patted dry.
1.1.10. A primary antibody (anti-Poly/Mono-ADP Ribose Rabbit mAb) was diluted 2000-fold with the blocking buffer and then added at 20 µL/well.
1.1.11. Washing: The primary antibody was discarded, and the plate was washed 3 times with the PBST solution according to the method in step 2. Finally, the reaction plate was patted dry.
1.1.12. A secondary antibody (anti-rabbit IgG, HRP-linked Antibody) was diluted 2000-fold with the blocking buffer and then added at 20 µL/well.
1.1.13. Washing: The secondary antibody was discarded, and the plate was washed 3 times with the PBST solution according to the method in step 2. Finally, the reaction plate was patted dry.
1.1.14. Color development: Femto-ECL Substrate A and Femto-ECL Substrate B were mixed at a ratio of 1:1, and the mixture was transferred to the 384-well reaction plate at 25 µL/well. 1.1.15. Reading: The chemiluminescence values (RLU) were measured using Envision.

[1] = test system: BRCA wild-type DLD-1 cells; assay: Anti-proliferative activity against cells (CCK8): DLD-1; format: cell-based; details: Homo sapiens, 72 h + 96 h culture
Procedure: BRCA wild-type DLD-1 cells were cultured in an RPMI-1640 medium containing 10% fetal bovine serum, 100 U/mL penicillin, and 100 µg/mL streptomycin, and incubated in an incubator with 5% saturated CO2 at 37 °C. When the cells grew to 80% confluence, they were collected, centrifuged at 300 g for 10 min, and then plated onto a 96-well plate at 1000 cells/well. After 24 h, different final concentrations (0 µM, 1 µM, and 10 µM) of PARPi were added, and the cells were cultured for another 72 h. The cells were subjected to medium exchange treatment (re-supplemented with PARPi at the same final concentrations) and then cultured for another 96 h. The 96-well plate was taken out.

[2] = test system: BRCA-mutated MDA-MB-436 cells; assay: Anti-proliferative activity against cells (CCK8): MDA-MB-436; format: cell-based; details: Homo sapiens, 72 h + 96 h culture

T1 sequence (P09874 whole entry): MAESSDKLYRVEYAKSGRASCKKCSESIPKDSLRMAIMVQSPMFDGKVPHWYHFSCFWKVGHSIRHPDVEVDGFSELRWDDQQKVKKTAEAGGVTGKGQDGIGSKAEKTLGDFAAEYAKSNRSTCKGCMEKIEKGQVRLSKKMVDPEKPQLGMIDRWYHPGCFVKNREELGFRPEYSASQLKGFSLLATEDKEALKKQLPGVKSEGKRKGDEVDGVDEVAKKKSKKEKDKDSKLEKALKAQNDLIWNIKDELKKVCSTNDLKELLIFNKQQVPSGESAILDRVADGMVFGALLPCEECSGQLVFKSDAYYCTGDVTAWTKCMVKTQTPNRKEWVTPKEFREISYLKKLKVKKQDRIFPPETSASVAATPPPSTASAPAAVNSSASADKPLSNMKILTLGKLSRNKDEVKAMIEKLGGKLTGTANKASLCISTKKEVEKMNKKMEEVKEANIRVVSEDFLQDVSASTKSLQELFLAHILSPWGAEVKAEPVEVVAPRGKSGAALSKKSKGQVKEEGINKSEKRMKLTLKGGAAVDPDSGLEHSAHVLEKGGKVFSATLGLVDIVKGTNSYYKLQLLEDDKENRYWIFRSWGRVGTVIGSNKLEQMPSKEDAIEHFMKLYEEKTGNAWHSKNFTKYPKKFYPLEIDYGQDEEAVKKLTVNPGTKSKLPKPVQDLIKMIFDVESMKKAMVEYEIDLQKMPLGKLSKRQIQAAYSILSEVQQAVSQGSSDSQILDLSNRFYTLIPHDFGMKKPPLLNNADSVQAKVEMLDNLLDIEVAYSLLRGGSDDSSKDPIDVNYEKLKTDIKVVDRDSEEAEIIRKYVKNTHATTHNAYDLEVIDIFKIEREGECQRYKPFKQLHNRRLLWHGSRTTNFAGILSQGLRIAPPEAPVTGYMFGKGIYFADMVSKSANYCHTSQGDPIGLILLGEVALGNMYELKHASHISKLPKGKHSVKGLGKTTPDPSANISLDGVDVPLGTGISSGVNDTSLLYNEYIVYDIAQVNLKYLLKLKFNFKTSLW

IC50 [2] [nM]	SMILES	IC50 (PARP1) [nM]	IC50 [1] [nM]
–	CNC(=O)c1ccc2c(n1)COC[C@H]1CN(CC3Cc4[nH]c(=O)c(C)cc4CO3)CCN21 (stereo partly drawn) [Example 92, (4aR)-N-Methyl-3-((3-methyl-2-oxo-1,5,7,8-tetrahydro-2H-pyrano[4,3-b]pyridin-7-yl)methyl) -1,2,3,4,4a,5-hexahydro-7H-pyrazino[2,1-c]pyrido[3,2-e][1,4]oxazolidine-9-carboxamide]	≤ 50	> 1000
–	CCc1nc2c([nH]c1=O)C[C@@H](CN1CCN(c3ccc(C(=O)NC)nc3F)CC1)CC2 [Example 48, (S)-5-(4-((2-Ethyl-3-oxo-3,4,5,6,7,8-hexahydroquinoxalin-6-yl)methyl)piperazin-1-yl)-6-fluor o-N-methylpicolinamide]	≤ 50	> 1000
–	CNC(=O)c1ccc(N2CCN(CC3Cc4[nH]c(=O)c(C5CC5)cc4CO3)CC2)c(F)n1 (centres unmarked) [Example 42, 5-(4-((3-Cyclopropyl-2-oxo-1,5,7,8-tetrahydro-2H-pyrano[4,3-b]pyridin-7-yl)methyl)piperazin-1-yl)-6-fluoro-N-methylpicolinamide]	50 to 500	> 1000
130	COC1CC(NC(=O)c2ccc(N3CCN(CC4Cc5[nH]c(=O)c(C)cc5CO4)CC3)c(F)n2)C1 (centres unmarked) [Example 79, 6-Fluoro-N-(3-methoxycyclobutyl)-5-(4-((3-methyl-2-oxo-1,5,7,8-tetrahydro-2H-pyrano[4,3-b]pyridin-7-yl)methyl)piperazin-1-yl)picolinamide]	–	> 1000
300	CNC(=O)c1ccc(C2CCN(C[C@H]3CCc4nc(C)c(=O)[nH]c4C3)CC2)c(F)n1 [Example 80, (S)-6-Fluoro-N-methyl-5-(1-((2-methyl-3-oxo-3,4,5,6,7,8-hexahydroquinoxalin-6-yl)methyl)piperidin-4-yl)picolinamide]	–	> 1000
10.5	CNC(=O)c1ccc(N2CCN(C[C@H]3Cc4[nH]c(=O)c(C)cc4CO3)CC2)c(Cl)n1 [Example 95, (R)-6-chloro-N-methyl-5-(4-((3-methyl-2-oxo-1,5,7,8-tetrahydro-2H-pyrano[4,3-b]pyridin-7-yl)methyl)piperazin-1-yl)picolinamide]	≤ 50	> 1000
1.5	CCc1cc2c([nH]c1=O)CC(CN1CCN(c3ccc(C(=O)NC4CC4)nc3F)CC1)OC2 (centres unmarked) [Compound 3, N-Cyclopropyl-5-(4-((3-ethyl-2-oxo-1,5,7,8-tetrahydro-2H-pyrano[4,3-b]pyridin-7-yl)methyl)piperazin-1-yl)-6-fluoropicolinamide]	≤ 50	> 1000
3.5	CCc1cc2c([nH]c1=O)CC(CN1CCN(c3ccc(C(=O)NC)nc3C)CC1)OC2 (centres unmarked) [Compound 38, 5-(4-((3-Ethyl-2-oxo-1,5,7,8-tetrahydro-2H-pyrano[4,3-b]pyridin-7-yl)methyl)piperazin-1-yl)-N,6-dimethylpicoli namide]	≤ 50	> 1000
–	CNC(=O)c1ccc(N2CCN(CC3Cc4[nH]c(=O)c(Br)cc4CO3)CC2)c(F)n1 (centres unmarked) [Example 40, 5-(4-((3-Bromo-2-oxo-1,5,7,8-tetrahydro-2H-pyrano[4,3-b]pyridin-7-yl)methyl)piperazin-1-yl)-6-fluoro-N-methylpicolinamide]	≤ 50	> 1000
15.5	CNC(=O)c1ccc(N2CCN(CC3Cc4[nH]c(=O)c(C)c(C)c4CO3)CC2)c(Cl)n1 (centres unmarked) [Example 100, 6-Chloro-5-(4-((3,4-dimethyl-2-oxo-1,5,7,8-tetrahydro-2H-pyrano[4,3-b]pyridin-7-yl)methyl)piperazin-1-yl)-N-methylpicolinamide]	≤ 50	> 1000
360	CNC(=O)c1ccc(C2CCN(CC3Cc4[nH]c(=O)c(C5CC5)cc4CO3)CC2)c(F)n1 (centres unmarked) [Example 61, 5-(1-((3-Cyclopropyl-2-oxo-1,5,7,8-tetrahydro-2H-pyrano[4,3-b]pyridin-7-yl)methyl)piperidin-4-yl)-6-fluoro-N-methylpicolinamide]	50 to 500	> 1000
300	CNC(=O)c1ccc(C2CCN(CC3Cc4[nH]c(=O)c(C)cc4CO3)CC2)c(F)n1 (centres unmarked) [Example 59, 6-Fluoro-N-methyl-5-(1-((3-methyl-2-oxo-1,5,7,8-tetrahydro-2H-pyrano[4,3-b]pyridin-7-yl)methyl)piperidin-4-yl)picolinamide]	50 to 500	> 1000
–	CNC(=O)c1ccc(N2CCN(CC3Cc4[nH]c(=O)c(SC)cc4CO3)CC2)c(F)n1 (centres unmarked) [Example 96, 6-Fluoro-N-methyl-5-(4-((3-(methylthio)-2-oxo-1,5,7,8-tetrahydro-2H-pyrano[4,3-b]pyridin-7-yl)methyl)piperazin-1-yl)picolinamide]	≤ 50	> 1000
0.7	CCc1cc2c([nH]c1=O)C[C@@H](CN1CCN(c3ccc(C(=O)NC)nc3F)CC1)OC2 [Example 65, (S)-5-(4-((3-Ethyl-2-oxo-1,5,7,8-tetrahydro-2H-pyrano[4,3-b]pyridin-7-yl)methyl)piperazin-1-yl)-6-fluoro-N-methylpicolinamide]	–	> 1000
4.5	CCc1cc2c([nH]c1=O)C[C@H](CN1CCN(c3ccc(C(=O)NC)nc3F)CC1)OC2 [Example 66, (R)-5-(4-((3-ethyl-2-oxo-1,5,7,8-tetrahydro-2H-pyrano[4,3-b]pyridin-7-yl)methyl)piperazin-1-yl)-6-fluoro-N-methylpicolinamide]	–	> 1000
–	CNC(=O)c1ccc(C2=CCN(C[C@H]3CCc4nc(C5CC5)c(=O)[nH]c4C3)CC2)c(F)n1 [Example 56, (S)-1'-((2-Cyclopropyl-3-oxo-3,4,5,6,7,8-hexahydroquinoxaline-6-yl)methyl)-2-fluoro-N-met hyl-1',2',3',6'-tetrahydro-[3,4'-bipyridine]-6-carboxamide]	≤ 50	> 1000
–	CNC(=O)c1ccc(N2CCN(CC3COc4cc(Cl)c(=O)[nH]c4C3)CC2)c(F)n1 (centres unmarked) [Example 86, 5-(4-((7-Chloro-6-oxo-3,4,5,6-tetrahydro-2H-pyrano[3,2-b]pyridin-3-yl)methyl)piperazin-1-yl)-6-fluoro-N-methylpicolinamide]	50 to 500	> 1000
–	CNC(=O)c1ccc(N2CCN(C[C@H]3CCc4nc(C5CC5)c(=O)[nH]c4C3)CC2)c(F)n1 [Example 57, (S)-5-(4-((2-Cyclopropyl-3-oxo-3,4,5,6,7,8-hexahydroquinoxaline-6-yl)methyl)piperazin-1-yl)-6-fluoro-N-methylpicolinamide]	≤ 50	> 1000
–	CNC(=O)c1ccc(N2CCN(C(C)[C@H]3CCc4nc(C)c(=O)[nH]c4C3)CC2)c(F)n1 (stereo partly drawn) [Example 71, (S)-6-Fluoro-N-methyl-5-(4-(1-(2-methyl-3-oxo-3,4,5,6,7,8-hexahydroquinoxalin-6-yl)ethyl)piperazin-1-yl)picolinamide]	≤ 50	> 1000

SMILES	IC50 [2] [nM]	IC50 (PARP1) [nM]	IC50 [1] [nM]
CNC(=O)c1ccc(C2=CCN(CC3Cc4[nH]c(=O)c(C)cc4CO3)CC2)c(F)n1 (centres unmarked) [Example 50, 2-Fluoro-N-methyl-1'-((3-methyl-2-oxo-1,5,7,8-tetrahydro-2H-pyrano[4,3-b]pyridin-7-yl)methyl)-1',2',3',6'-tetrahydro-[3,4'-bipyridine]-6-carboxamide]	350	50 to 500	> 1000
CNC(=O)c1ccc(C2=CCN(CC3Cc4[nH]c(=O)c(Cl)cc4CO3)CC2)c(F)n1 (centres unmarked) [Example 63, 1'-((3-Chloro-2-oxo-1,5,7,8-tetrahydro-2H-pyrano[4,3-b]pyridin-7-yl)methyl)-2-fluoro-N-met hyl-1',2',3',6'-tetrahydro-[3,4'-bipyridine]-6-carboxamide]	430	50 to 500	> 1000
